Source: PubChem BioAssay (NCI)
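Compound exposure: 48 hours, 5 concentrations, 96-well plates. At the GI50, growth is halved. TGI marks complete inhibition of growth.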

Legend:
Test in all cases: NCI-60 cell line screen, 48 h
BT-549 breast = test system: BT-549 breast
SF-295 CNS = test system: SF-295 CNS
TK-10 renal = test system: TK-10 renal
COLO 205 colon = test system: COLO 205 colon
K-562 leukemia = test system: K-562 leukemia
OVCAR-3 ovarian = test system: OVCAR-3 ovarian
UACC-257 melanoma = test system: UACC-257 melanoma
UACC-62 melanoma = test system: UACC-62 melanoma
A549 NSCLC = test system: A549 NSCLC
HL-60(TB) leukemia = test system: HL-60(TB) leukemia
OVCAR-5 ovarian = test system: OVCAR-5 ovarian
HCT-15 colon = test system: HCT-15 colon
UO-31 renal = test system: UO-31 renal
SF-268 CNS = test system: SF-268 CNS
RXF 393 renal = test system: RXF 393 renal
SW-620 colon = test system: SW-620 colon
EKVX NSCLC = test system: EKVX NSCLC
MDA-MB-231 breast = test system: MDA-MB-231 breast
PC-3 prostate = test system: PC-3 prostate
NCI-H23 lung = test system: NCI-H23 lung
CAKI-1 renal = test system: CAKI-1 renal
MDA-MB-435 = test system: MDA-MB-435
786-0 renal = test system: 786-0 renal
NCI-H460 lung = test system: NCI-H460 lung
HCT-116 colon = test system: HCT-116 colon
LOX IMVI melanoma = test system: LOX IMVI melanoma
HOP-62 NSCLC = test system: HOP-62 NSCLC
MCF7 breast = test system: MCF7 breast
HOP-92 NSCLC = test system: HOP-92 NSCLC
NCI-H522 lung = test system: NCI-H522 lung
KM12 colon = test system: KM12 colon
M14 melanoma = test system: M14 melanoma
NCI-H226 lung = test system: NCI-H226 lung
SK-MEL-5 melanoma = test system: SK-MEL-5 melanoma
NCI/ADR-RES ovarian = test system: NCI/ADR-RES ovarian
SNB-19 CNS = test system: SNB-19 CNS
OVCAR-8 ovarian = test system: OVCAR-8 ovarian
SK-MEL-28 melanoma = test system: SK-MEL-28 melanoma
HCC-2998 colon = test system: HCC-2998 colon
SN12C renal = test system: SN12C renal
IGROV1 ovarian = test system: IGROV1 ovarian
SK-MEL-2 melanoma = test system: SK-MEL-2 melanoma
MOLT-4 leukemia = test system: MOLT-4 leukemia
U251 CNS = test system: U251 CNS
HT29 colon = test system: HT29 colon
HS 578T breast = test system: HS 578T breast
ACHN renal = test system: ACHN renal
T-47D breast = test system: T-47D breast

`C=C1CCC2C(C)(C)CCC[C@]2(C)[C@H]1CO` (stereo partly specified) showed a GI50 (BT-549 breast) of 47.9 µM, a TGI (BT-549 breast) of over 100 µM and a GI50 (SF-295 CNS) of over 100 µM. It also gave a TGI (SF-295 CNS) of over 100 µM, a GI50 (TK-10 renal) of over 100 µM and a TGI (TK-10 renal) of over 100 µM. It also gave a GI50 (COLO 205 colon) of 42.1 µM, a TGI (COLO 205 colon) of over 100 µM and a GI50 (K-562 leukemia) of 73.8 µM. For the same compound, the TGI (K-562 leukemia) was over 100 µM, the GI50 (OVCAR-3 ovarian) was over 100 µM and the TGI (OVCAR-3 ovarian) was over 100 µM. It also gave a GI50 (UACC-257 melanoma) of over 100 µM, a TGI (UACC-257 melanoma) of over 100 µM and a GI50 (UACC-62 melanoma) of over 100 µM. For the same compound, the TGI (UACC-62 melanoma) was over 100 µM, the GI50 (A549 NSCLC) was 73.9 µM and the TGI (A549 NSCLC) was over 100 µM. The GI50 (HL-60(TB) leukemia) was 15.8 µM, the TGI (HL-60(TB) leukemia) was over 100 µM and the GI50 (OVCAR-5 ovarian) was 93.5 µM. For the same compound, the TGI (OVCAR-5 ovarian) was over 100 µM, the GI50 (HCT-15 colon) was 56.9 µM and the TGI (HCT-15 colon) was over 100 µM. The GI50 (UO-31 renal) was over 100 µM, the TGI (UO-31 renal) was over 100 µM and the GI50 (SF-268 CNS) was over 100 µM. For the same compound, the TGI (SF-268 CNS) was over 100 µM, the GI50 (RXF 393 renal) was over 100 µM and the TGI (RXF 393 renal) was over 100 µM. It also gave a GI50 (SW-620 colon) of over 100 µM, a TGI (SW-620 colon) of over 100 µM and a GI50 (EKVX NSCLC) of 53.5 µM. It also gave a TGI (EKVX NSCLC) of over 100 µM, a GI50 (MDA-MB-231 breast) of 50.2 µM and a TGI (MDA-MB-231 breast) of over 100 µM. The GI50 (PC-3 prostate) was 65.8 µM, the TGI (PC-3 prostate) was over 100 µM and the GI50 (NCI-H23 lung) was 46.1 µM. For the same compound, the TGI (NCI-H23 lung) was over 100 µM, the GI50 (CAKI-1 renal) was over 100 µM and the TGI (CAKI-1 renal) was over 100 µM. The GI50 (MDA-MB-435) was 43.2 µM, the TGI (MDA-MB-435) was over 100 µM and the GI50 (786-0 renal) was 57.3 µM. The TGI (786-0 renal) was over 100 µM, the GI50 (NCI-H460 lung) was 59.8 µM and the TGI (NCI-H460 lung) was over 100 µM. For the same compound, the GI50 (HCT-116 colon) was 30.4 µM, the TGI (HCT-116 colon) was over 100 µM and the GI50 (LOX IMVI melanoma) was 24.9 µM. It also gave a TGI (LOX IMVI melanoma) of 70.2 µM, a GI50 (HOP-62 NSCLC) of over 100 µM and a TGI (HOP-62 NSCLC) of over 100 µM. It also gave a GI50 (MCF7 breast) of 49.1 µM, a TGI (MCF7 breast) of over 100 µM and a GI50 (HOP-92 NSCLC) of 74.9 µM. It also gave a TGI (HOP-92 NSCLC) of over 100 µM, a GI50 (NCI-H522 lung) of 67.6 µM and a TGI (NCI-H522 lung) of over 100 µM. The GI50 (KM12 colon) was 87.7 µM, the TGI (KM12 colon) was over 100 µM and the GI50 (M14 melanoma) was 71.8 µM. For the same compound, the TGI (M14 melanoma) was over 100 µM, the GI50 (NCI-H226 lung) was 94.5 µM and the TGI (NCI-H226 lung) was over 100 µM. For the same compound, the GI50 (SK-MEL-5 melanoma) was 68.2 µM, the TGI (SK-MEL-5 melanoma) was over 100 µM and the GI50 (NCI/ADR-RES ovarian) was 60.3 µM. For the same compound, the TGI (NCI/ADR-RES ovarian) was over 100 µM, the GI50 (SNB-19 CNS) was over 100 µM and the TGI (SNB-19 CNS) was over 100 µM. For the same compound, the GI50 (OVCAR-8 ovarian) was 76.1 µM, the TGI (OVCAR-8 ovarian) was over 100 µM and the GI50 (SK-MEL-28 melanoma) was over 100 µM. It also gave a TGI (SK-MEL-28 melanoma) of over 100 µM, a GI50 (HCC-2998 colon) of 13.5 µM and a TGI (HCC-2998 colon) of 33 µM. For the same compound, the GI50 (SN12C renal) was 19.8 µM, the TGI (SN12C renal) was 39.5 µM and the GI50 (IGROV1 ovarian) was over 100 µM. It also gave a TGI (IGROV1 ovarian) of over 100 µM, a GI50 (SK-MEL-2 melanoma) of over 100 µM and a TGI (SK-MEL-2 melanoma) of over 100 µM. The GI50 (MOLT-4 leukemia) was 73.2 µM, the TGI (MOLT-4 leukemia) was over 100 µM and the GI50 (U251 CNS) was 49 µM. The TGI (U251 CNS) was over 100 µM, the GI50 (HT29 colon) was 52.7 µM and the TGI (HT29 colon) was over 100 µM. The GI50 (HS 578T breast) was over 100 µM, the TGI (HS 578T breast) was over 100 µM and the GI50 (ACHN renal) was 97.9 µM. The TGI (ACHN renal) was over 100 µM, the GI50 (T-47D breast) was 41.7 µM and the TGI (T-47D breast) was over 100 µM.
